According to patent publication US20170239201A1, “GLYCOLIC ACID ENHANCES SPERM MOBILITY” (MAX-PLANCK-GESELLSCHAT ZUR FORDERUNG DER WISSENSCHAFTEN E.V., priority 2014, published 2017):

Tests used:
mouse sperm = assay: Mouse sperm motility and progressivity (CASA system, Hamilton-Thorne); format: cell-based; details: for difference in treated mouse sperm compared to controls: motility/progressivity
Protocol: Extract epididymis and open them in CPA medium (18% Raffinose and 3% Low fat milk powder). Let spermatozoids swim out for 5 min at room temperature.
For each condition, take 4 μl of mouse sperm in CPA and place in 196 μl of HTF medium from the incubator (at 37° C.). Let it incubate 5 min. in the 37° C. incubator, add substances to the HTF medium (see formulation below) and incubate for different times.
At each time point, fill a Leja-Slide with 25 μl of the HTF buffer containing the diluted sperm and place in the sperm counting machine (Hamilton-Thorne, USA). The machine takes 10 pictures per samples and analyses the different parameters (motility, progressivity,etc. . . . ). Sperm motility analysis was done blindly. Glycolic acid and […] were given to the technician from the facility as Substance 1 and Substance 2, only later did […] get to know which belong to what compound.
(§1) The examples tested the effect of 10 to 30 mM of glycolic acid and D-lactate on mouse sperm motility and progressivity or on bull motility. For this, epididymic mouse sperm from two strains (WT and DJ-1) or ejaculated frozen bull sperm was obtained. Sperm from each individual was divided and treated either with glycolic acid or with the vehicle for up to 90 minutes. Mouse sperm motility and progressivity was determined with the help of an automatized machine (CASA system, Hamilton-Thorne Research, http://www.hamiltonthorne.com/index.php/products/casa-products/sperm-analysis-systems-research) that uses high frequency photo images and image analysis to analyze these parameters. Frozen ejaculated bull sperm motility was assessed by an experienced technician. Mouse sperm from WT and DJ-1 mice was divided by the software into motile and non-motile sperm according to standardized parameters and results are given as percentages of the total population identified as motile sperm (FIG. 1-4). Sperm progressivity alone was analyzed only on the mouse sperm, as only the software from the CASA system is sensitive enough to make this analysis and this machine can only analyze mouse sperm. Bull sperm was divided into progressive motile, motile (the sum of progressive motile and motile on the spot) and the rest (FIGS. 5, 6 and 7).

human sperm = assay: Human sperm motility, fresh and defrosted sperm; format: cell-based; details: 30 and 60 mM, significant (p<0.05) over whole experiment
Protocol: Human sperm was collected from donors after ejaculation and used on the same day. Frozen human sperm was defrosted in a warm bath before starting the experiments. The regional ethical committee approved sample collection and use of human sperm. Both fresh and frozen human sperm were centrifuged, the supernatant was removed and the sperms were resuspended in HTF-like medium alone or with glycolic acid. Sperms were incubated with the 30 and 60 mM glycolic acid for 10 min before the measurements began. Measurements were performed by an experienced technician from the urology department.
(§2) This enhancement can be observed in human sperm, both defrosted and fresh, and defrosted bull sperm. Two-way ANOVA analysis was used (much more restrictive than a t-Test). * means p<0.05, **p<0.01, ***p<0.001 and […]. […] Both sperm motility and mitochondrial measurements are normalized to a control at time-point 0.

bull sperm = assay: Bull sperm motility and progressive motility, defrosted sperm, assessed by technician; format: cell-based
Protocol: Frozen bull sperm was defrosted in a warm bath and centrifuged. The supernatant was removed and the sperms were resuspended in HTF-like medium alone or with glycolic acid. Sperms were incubated with the 10, 20 and 30 mM glycolic acid for 10 min. before the measurements began. Measurements were performed by an experienced technician from the urology department.
as §1

[1] = tested on: sperm mitochondrial membrane potential; assay: Mitochondrial membrane potential of sperm (JC-1 and FACS sorting); format: cell-based; details: JC-1, FACS; normalized to control at time-point 0; FIG. 8
Text: as §2

[2] = estimated; cited from earlier work
[3] = 10 mM, 30 minutes after application, average stated for mouse and bull sperm

| Structure (SMILES) | difference in treated mouse sperm compared to controls (mouse sperm) | increase in sperm motility (percentage of motile spermatozoids) (mouse sperm; [3]) | increase in sperm progressivity (percentage of motile spermatozoids that move forward) (mouse sperm; [3]) | time over which the enhancement is sustained (mouse sperm; both species) | sperm motility (FIG. 8), normalized to control at time-point 0 (human sperm) | increase in sperm motility (percentage of motile spermatozoids) (bull sperm; [3]) | increase in sperm progressivity (percentage of motile spermatozoids that move forward) (bull sperm; [3]) | bull sperm motility and progressivity at higher concentrations (bull sperm; 20 and 30 mM compared to 10 mM glycolic acid) | time over which the enhancement is sustained (bull sperm; both species) | sperm mobility, in particular sperm progressivity, at higher concentrations (bull sperm; concentrations up to 60 mM, data not shown) | sperm motility (FIG. 8), normalized to control at time-point 0 (bull sperm; defrosted bull sperm, significant (p<0.05) over whole experiment) | mitochondrial membrane potential [1] | minimum toxic dose [2] |
| --- | --- | --- | --- | --- | --- | --- | --- | --- | --- | --- | --- | --- | --- |
| C[C@@H](O)C(=O)O [D-lactate, reference compound] | not |  |  |  |  |  |  |  |  |  |  |  |  |
| O=C(O)CO [Glycolic acid, 2-hydroxyethanoic acid] | significance difference | 19% | 28% | up to 90 min | enhances sperm motility | 19% | 28% | further increase | up to 90 min | increase | enhances sperm motility | did not increase |  |
| OCCOCCO [diethylene glycol] |  |  |  |  |  |  |  |  |  |  |  |  | 0.14 mg glycolic acid per kg of body weight |
